Target: T1, SoArsAB (Sporomusa ovata, UniProt F6MZ55+F6MZ56)
T1 sequence (F6MZ55 1-350): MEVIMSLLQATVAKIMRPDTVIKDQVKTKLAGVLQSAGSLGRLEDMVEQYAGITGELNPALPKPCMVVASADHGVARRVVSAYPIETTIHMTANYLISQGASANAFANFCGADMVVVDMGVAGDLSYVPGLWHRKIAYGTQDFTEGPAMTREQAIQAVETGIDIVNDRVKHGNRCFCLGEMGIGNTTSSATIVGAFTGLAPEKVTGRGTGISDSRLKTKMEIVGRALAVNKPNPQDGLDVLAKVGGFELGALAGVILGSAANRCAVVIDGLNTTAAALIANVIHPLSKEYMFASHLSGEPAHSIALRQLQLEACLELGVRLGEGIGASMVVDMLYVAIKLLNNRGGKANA
T1 sequence (F6MZ56 1-350): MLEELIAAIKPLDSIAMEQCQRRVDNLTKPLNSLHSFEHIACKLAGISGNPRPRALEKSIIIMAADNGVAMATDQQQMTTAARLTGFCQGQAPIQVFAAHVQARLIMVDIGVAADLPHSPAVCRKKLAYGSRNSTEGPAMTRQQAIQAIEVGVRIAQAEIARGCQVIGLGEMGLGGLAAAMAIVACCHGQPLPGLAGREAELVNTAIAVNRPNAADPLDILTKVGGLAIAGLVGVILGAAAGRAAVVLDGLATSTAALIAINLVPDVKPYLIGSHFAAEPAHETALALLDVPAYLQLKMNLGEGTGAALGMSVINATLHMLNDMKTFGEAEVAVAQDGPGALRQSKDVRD
Experiment: product
Format: biochemical
Conditions: NaMN co-substrate; 6 h incubation

For `Cc1ccc(O)cc1` [P, p-cresol], the “product (alpha-p-cresolyl-ribotide) by RP-HPLC and ESI-MS” value was “The product of SoArsAB when phenol, p-cresol, or DMB was used as substrate was purified”.

— paper PMC3182833 (Molecular microbiology, 2011)
